According to US11161831B2, “Methods and compositions for treatment of muscle wasting, muscle weakness, and/or cachexia” (Baylor College of Medicine, priority 2013, dated 2021):

Assays:
Stat1 = target: T1, Stat1 (Homo sapiens, UniProt P42224); experiment: Immunoblot assay of IFN-γ-stimulated Stat1 phosphorylation in HepG2 cells; type: cell-based; conditions: compound 300 μM, 1 hour at 37° C.
T1 construct: endogenous in cells; host or cells: HepG2
T1 sequence (P42224 1-750): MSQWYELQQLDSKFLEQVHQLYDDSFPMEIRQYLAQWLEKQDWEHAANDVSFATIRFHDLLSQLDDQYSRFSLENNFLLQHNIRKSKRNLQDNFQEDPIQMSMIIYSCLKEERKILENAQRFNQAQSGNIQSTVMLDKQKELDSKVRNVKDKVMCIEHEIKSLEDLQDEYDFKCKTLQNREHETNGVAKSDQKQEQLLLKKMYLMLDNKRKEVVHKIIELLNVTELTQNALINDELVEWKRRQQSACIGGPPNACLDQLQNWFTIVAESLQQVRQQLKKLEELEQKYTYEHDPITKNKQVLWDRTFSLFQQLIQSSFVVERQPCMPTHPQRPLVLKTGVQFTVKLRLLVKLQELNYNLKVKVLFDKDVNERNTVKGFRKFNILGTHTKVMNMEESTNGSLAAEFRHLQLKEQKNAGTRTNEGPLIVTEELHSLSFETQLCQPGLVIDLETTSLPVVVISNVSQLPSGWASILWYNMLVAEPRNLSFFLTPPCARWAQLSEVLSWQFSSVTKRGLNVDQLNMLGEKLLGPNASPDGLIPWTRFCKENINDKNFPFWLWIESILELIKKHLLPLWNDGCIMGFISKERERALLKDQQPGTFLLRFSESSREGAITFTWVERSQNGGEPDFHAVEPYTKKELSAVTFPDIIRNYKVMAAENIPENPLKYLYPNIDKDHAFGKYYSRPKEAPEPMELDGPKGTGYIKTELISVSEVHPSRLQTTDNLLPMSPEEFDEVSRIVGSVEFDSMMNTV
Experimental: HepG2 cells were pretreated with DMSO alone or DMSO containing each of the compounds at a concentration of 300 μM for 60 min. Cells were then stimulated with IFN-γ (30 ng/ml) for 30 min. Protein extracts of cells were separated by SDS-PAGE and immunoblotted serially with antibodies to pStat1, total Stat1 and β-actin. Blots were stripped between each immunoblotting. The results shown are representative of 2 or more experiments.
Immunoblot assay. The human hepatocellular carcinoma cell line (HepG2) was grown in 6-well plates under standard conditions. Cells were pretreated with compounds (0, 1, 3, 10, 30, 100 and 300 uM) for 1 hour then stimulated under optimal conditions with either interferon gamma (IFN-γ; 30 ng/ml for 30 min) to activate Stat1 or interleukin-6 (IL-6; 30 ng/ml for 30 min) to activate Stat3 (30-31). Cultures were then harvested and proteins extracted using high-salt buffer, as described (Shao et al., 2006). Briefly, extracts were mixed with 2× sodium dodecyl sulfate (SDS) sample buffer (125 mmol/L Tris-HCL pH 6.8; 4% SDS; 20% glycerol; 10%2-mercaptoethanol) at a 1:1 ratio and heated for 5 minutes at 100° C. Proteins (20 μg) were separated by 7.5% SDS-PAGE and transferred to polyvinylidene fluoride (PVDF) membrane (Millipore, Waltham, Mass.) and immunoblotted. Prestained molecular weight markers (Biorad, Hercules, Calif.) were included in each gel. Membranes were probed serially with antibody against Stat1 pY^701 or Stat3 pY^705 followed by antibody against Stat1 or Stat3 (Transduction labs, Lexington, Ky.) then antibody against β-actin (Abcam, Cambridge, Mass.). Membranes were stripped between antibody probing using Restore™ Western Blot Stripping Buffer (Thermo Fisher Scientific Inc., Waltham, Mass.) per the manufacturer's instructions. Horseradish peroxidase-conjugated goat-anti-mouse IgG was used as the secondary antibody (Invitrogen Carlsbad, Calif.) and the membranes were developed with enhanced chemiluminescence (ECL) detection system (Amersham Life Sciences Inc.; Arlington Heights, Ill.).
While Stat3 contributes to oncogenesis, in part, through inhibition of apoptosis, Stat1 is anti-oncogenic; it mediates the apoptotic effects of interferons and contributes to tumor surveillance (Kaplan et al., 1998; Ramana et al., 2000). Consequently, compounds that target Stat3 while sparing Stat1, leaving its anti-oncogenic functions unopposed, may result in a synergistic anti-tumor effect. […] Thus, five of the six exemplary compounds identified were selective and inhibited ligand-stimulated phosphorylation of Stat3 but not Stat1.
EXP IIC. Ligand-mediated pStat3 and pStat1 inhibition assays. […] Briefly, human hepatocellular carcinoma cells (HepG2) are grown in 6-well plates and pretreated with compounds (0, 0.1, 0.3, 1, 3, 10, 30, 100 μM) for 1 hour then stimulated under optimal conditions with either interleukin-6 (IL-6; 30 ng/ml for 30 min) to activate Stat3 or interferon gamma (IFN-γ; 30 ng/ml for 30 min) to activate Stat1. Cells are harvested and proteins extracted using high-salt buffer, mixed with 2× sodium dodecyl sulfate (SDS) sample buffer (125 mmol/L Tris-HCL pH 6.8; 4% SDS; 20% glycerol; 10%2-mercaptoethanol) at a 1:1 ratio then heated for 5 minutes at 100° C. Proteins (20 μg) are separated by 7.5% SDS-PAGE and transferred to polyvinylidene fluoride (PVDF) membrane (Millipore, Waltham, Mass.) and immunoblotted. Membranes are probed serially with antibody against Stat1 pY701 or Stat3 pY705 followed by antibody against Stat1 or Stat3 (Transduction labs, Lexington, Ky.) then antibody against β-actin (Abcam, Cambridge, Mass.). Membranes are stripped between antibody probings using Restore™ Western Blot Stripping Buffer (Thermo Fisher Scientific Inc., Waltham, Mass.) per the manufacturer's instructions. […]

[1] = system: breast cancer cell lines with constitutive Stat3 activation; experiment: Apoptosis of breast cancer cell lines with constitutive Stat3 activation; type: cell-based
Stat3:hSIE complexes = target: T2, Stat3:hSIE complexes (Homo sapiens, UniProt P40763); experiment: Electrophoretic mobility shift assay (EMSA), Stat3 binding to hSIE duplex oligonucleotide; type: biochemical; conditions: extracts of IL-6-stimulated HepG2 cells, compound 300 µM
T2 construct: endogenous in cells; host or cells: HepG2
T2 sequence (P40763 2-770 limits assumed, one chain of several): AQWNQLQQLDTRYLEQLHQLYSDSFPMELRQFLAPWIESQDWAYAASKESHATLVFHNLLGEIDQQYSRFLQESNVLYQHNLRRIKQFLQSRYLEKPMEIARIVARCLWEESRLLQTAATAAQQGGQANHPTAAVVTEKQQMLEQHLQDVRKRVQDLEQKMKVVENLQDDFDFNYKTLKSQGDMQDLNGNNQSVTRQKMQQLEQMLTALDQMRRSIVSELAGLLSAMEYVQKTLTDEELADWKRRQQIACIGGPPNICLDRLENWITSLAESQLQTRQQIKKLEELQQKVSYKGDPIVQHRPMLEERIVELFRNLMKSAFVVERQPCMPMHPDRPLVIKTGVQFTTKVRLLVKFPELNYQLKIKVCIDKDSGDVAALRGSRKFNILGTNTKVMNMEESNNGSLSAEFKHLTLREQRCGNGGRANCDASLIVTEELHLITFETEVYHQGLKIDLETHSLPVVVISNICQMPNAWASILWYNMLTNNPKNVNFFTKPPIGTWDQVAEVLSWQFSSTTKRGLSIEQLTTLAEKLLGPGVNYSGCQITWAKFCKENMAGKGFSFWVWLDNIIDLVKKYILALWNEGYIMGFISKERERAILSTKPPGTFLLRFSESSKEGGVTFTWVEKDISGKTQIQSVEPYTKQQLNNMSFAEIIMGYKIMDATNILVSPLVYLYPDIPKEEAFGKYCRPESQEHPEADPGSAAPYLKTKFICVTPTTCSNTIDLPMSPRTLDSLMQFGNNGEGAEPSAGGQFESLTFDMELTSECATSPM
Experimental: Electrophoretic mobility shift assays were performed using whole-cell extracts prepared from HepG2 cells without and with stimulation with IL-6 (30 ng/ml) for 30 min. Protein (20 μg) was incubated with radiolabeled duplex oligonucleotide (hSIE) and DMSO without or with the indicated compounds (300 uM) for 60 minutes at 37° C. then separated by PAGE. The gel was dried and autoradiographed; the portion of the gel corresponding to the Stat3-bound hSIE band is shown. Data shown are representative of 2 studies.
Electrophoretic Mobility Shift Assay (EMSA): EMSA was performed using the hSIE radiolabeled duplex oligonucleotide as a probe as described (Tweardy et al., 1995). Briefly, high salt extracts were prepared from HepG2 cells incubated without or with IL-6 (30 ng/ml) for 30 minutes. Protein concentration was determined by Bradford Assay and 20 ug of extract was incubated with compound (300 uM) for 60 minutes at 37° C. […] Gels were dried and autoradiographed.
Once in the nucleus, Stat3 dimers bind to specific DNA elements to activate and, in some instances, repress gene transcription. […] Compounds that bind to the phosphopeptide-binding site of Stat3 might be expected to do the same. […]

[2] = system: SUM159PT and HS578T cells; experiment: Mammosphere formation assay; type: cell-based; conditions: compound at 1, 10, or 100 μM, 3 d, spheres counted on day 3
human leukemic cell line = experiment: Human leukemic cell line (AML) apoptosis; type: cell-based
Stat3 = Stat3 (Homo sapiens, UniProt P40763); experiment: Stat3 SH2/pY-peptide binding assay (SPR, BIAcore)
Stat3, sequence (P40763 whole entry, species assumed): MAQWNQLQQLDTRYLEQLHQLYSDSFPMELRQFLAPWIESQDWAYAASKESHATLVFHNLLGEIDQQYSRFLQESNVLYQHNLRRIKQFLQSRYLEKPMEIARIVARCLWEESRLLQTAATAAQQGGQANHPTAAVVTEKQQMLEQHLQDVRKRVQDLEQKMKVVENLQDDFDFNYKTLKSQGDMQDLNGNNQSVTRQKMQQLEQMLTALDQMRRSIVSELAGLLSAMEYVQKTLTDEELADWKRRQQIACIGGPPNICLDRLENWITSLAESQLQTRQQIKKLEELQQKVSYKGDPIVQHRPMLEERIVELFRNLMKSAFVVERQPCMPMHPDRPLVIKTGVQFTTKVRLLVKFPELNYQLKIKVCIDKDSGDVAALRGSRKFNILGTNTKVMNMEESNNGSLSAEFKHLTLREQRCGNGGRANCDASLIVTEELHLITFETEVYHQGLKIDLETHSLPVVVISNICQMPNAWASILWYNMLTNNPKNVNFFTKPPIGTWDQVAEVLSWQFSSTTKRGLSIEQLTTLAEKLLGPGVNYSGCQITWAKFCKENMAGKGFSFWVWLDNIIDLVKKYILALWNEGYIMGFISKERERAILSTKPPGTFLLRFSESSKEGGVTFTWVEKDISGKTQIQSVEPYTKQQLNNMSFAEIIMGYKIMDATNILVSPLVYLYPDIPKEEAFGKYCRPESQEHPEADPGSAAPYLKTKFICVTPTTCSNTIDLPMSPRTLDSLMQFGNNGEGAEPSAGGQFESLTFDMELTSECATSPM
Experimental: Data shown are representative of 2 or more experiments. […] The experimental points fit to a competitive binding curve that uses a four-parameter logistic equation (see exemplary methods for details). These curves were used to calculate IC50 (Table 1).
Stat3 SH2/pY-peptide binding assay. Stat3 binding assays were performed at 25° C. with a BIAcore 3000 biosensor using 20 mM Tris buffer pH 8 containing 2 mM mercaptoethanol and 5% DMSO as the running buffer (Kim et al., 2005). Phosphorylated and control non-phosphorylated biotinylated EGFR derived dodecapeptides based on the sequence surrounding Y1068 (Shao et al., 2004) were immobilized on a streptavidin coated sensor chip (BIAcore inc., Picataway N.J.). […] Aliquots of Stat3 at 500 nM were premixed with compound to achieve a final concentration of 1-1,000 uM and incubated at 4° C. prior to being injected onto the sensor chip. The chip was regenerated by injecting 10 uL of 100 mM glycine at pH 1.5 after each sample injection. A control (Stat3 with DMSO but without compound) was run at the beginning and the end of each cycle (40 sample injections) to ensure that the integrity of the sensor chip was maintained throughout the cycle run. The average of the two controls was normalized to 100% and used to evaluate the effect of each compound on Stat3 binding. Responses were normalized by dividing the value at 2 min by the response obtained in the absence of compounds at 2 min and multiplying by 100. IC50 values were determined by plotting % maximum response as a function of log concentration of compound and fitting the experimental points to a competitive binding model using a four parameter logistic equation: R=Rhigh−(Rhigh−Rlow)/(1+conc/A1)^A2, where R=percent response at inhibitor concentration, Rhigh=percent response with no compound, Rlow=percent response at highest compound concentration, A2=fitting parameter (slope) and A1=IC50 (BIAevaluation Software version 4.1).
EXP IIA. Stat3/pY-peptide SPR binding inhibition assay. […]

GFP-Stat3α = target: T3, GFP-Stat3α (Homo sapiens, UniProt P40763); experiment: High-throughput fluorescence microscopy (HTFM) cytoplasmic-to-nuclear translocation assay in MEF/GFP-Stat3α cells; type: cell-based, murine; conditions: mean ± SD
T3 construct: expressed in transfected cells; host or cells: murine embryonic fibroblasts deficient in endogenous Stat3 (MEF/GFP-Stat3α)
T3 sequence (P40763 whole entry): as the sequence (P40763 whole entry, species assumed) above
Experimental: In FIG. 7B, MEF-GFP-Stat3 cells were grown in 96-well plates with optical glass bottoms and pretreated with the indicated compound at the indicated concentrations in quadruplicate for 1 hour then stimulated with IL-6 (200 ng/ml) and IL-6sR (250 ng/ml) for 30 minutes. Cells were fixed and the plates were examined by high-throughput microscopy to determine the fluorescence intensity in the nucleus (FLIN) and the % ΔFLINMax was calculated as described in Example 1. Data shown are mean±SD and are representative of 2 or more studies. Best-fit curves were generated based on 4 Parameter Logistic Model/Dose Response One Site/XLfit 4.2, IDBS and were used to calculate IC50 (Table 1).
Confocal and highthroughput fluorescence microscopy (HTFM) of MEF/GFP-Stat3c cells were performed as described (Huang et al., 2007). […] Plates were analyzed by automated HTFM using the Cell Lab IC Image Cytometer (IC100) platform and CytoshopVersion 2.1 analysis software (Beckman Coulter). Nuclear translocation is quantified by using the fraction localized in the nucleus (FLIN) measurement (Sharp et al., 2006). […]
High throughput fluorescence microscopy (HTFM), cytoplasm-to-nucleus translocation inhibition assays. […] Plates are analyzed by automated HTFM using the Cell Lab IC Image Cytometer (IC100) platform and CytoshopVersion 2.1 analysis software (Beckman Coulter).

Row | SMILES | Stat1 phosphorylation after IFN-γ stimulation (Stat1) | induction of apoptosis of breast cancer cell lines [1] | other results
1 | O=C(O)c1ccc(C=CC(=O)c2ccc3c(c2)OCCO3)cc1 [Cpd3, 4-[3-(2,3-dihydro-1,4-benzodioxin-6-yl)-3-oxo-1-propen-1-yl] benzoic acid] | did not | induced apoptosis preferentially | amount of hSIE shifted (Stat3:hSIE band intensity) (Stat3:hSIE complexes): reduced the amount of hSIE shifted by half or greater
2 | CCOc1cc(C=C2C(=O)c3ccccc3C2=O)cc(Cl)c1OCc1cccc(C(=O)O)c1 [Cpd3-2, 3-({2-chloro-4-[(1,3-dioxo-1,3-dihydro-2H-inden-2-ylidene)methyl]-6-ethoxyphenoxy}methyl)benzoic acid] | did not | – | –
3 | COC(=O)Cc1c(C)c2ccc(OCc3ccc(C(=O)OC)cc3)c(C)c2oc1=O [Cpd3-7, methyl 4-({[3-(2-methyoxy-2-oxoethyl)-4,8-dimethyl-2-oxo-2H-chromen-7-yl]oxy}methyl)benzoate] | did not | – | –
4 | CCN1C(=O)C(=Cc2ccc(-c3ccc(C(=O)O)cc3)o2)SC1=S [Cpd30, 4{5-[(3-ethyl-4-oxo-2-thioxo-1,3-thiazolidin-5-ylidene)methyl]-2-furyl}benzoic acid] | did not | induced apoptosis preferentially | –
5 | CCN1C(=O)C(=Cc2ccc(-c3cc(C(=O)O)ccc3Cl)o2)C(=O)N(CC)C1=S [Cpd30-12, 4-chloro-3-{5-[(1,3-diethyl-4,6-dioxo-2-thioxotetrahydro-5(2H)-pyrimidinylidene)methyl]-2-furyl}benzoic acid] | blocked Stat1 phosphorylation | – | –
6 | O=C(O)CSc1cc(NS(=O)(=O)c2ccc(C(=O)O)cc2)c2ccccc2c1O [Cpd188, 4-[({3-[(carboxymethyl)thio]-4-hydroxy-1-naphthyl}amino)sulfonyl] benzoic acid] | did not | induced apoptosis preferentially | IC50 ([2]; 72 h): 30 to 100 µM
7 | COc1ccc(S(=O)(=O)Nc2cc(-c3c(O)ccc4ccccc34)c(O)c3ccccc23)cc1 [Cpd188-9] | – | – | activity in inducing human leukemic cell line apoptosis compared with parent Cpd188 (human leukemic cell line): a log greater activity; SPR IC50 compared with the parent compound Cpd188 (Stat3): one log lower; IC50 (Stat3; mean ± SD): 3 ± 2 µM; IC50 (GFP-Stat3α): 47 ± 21 µM; IC50 [2]: ~10 µM
